{"source": "paper PMC9250534", "about": "“Synthesis and direct assay of large macrocycle diversities by combinatorial late-stage modification at picomole scale” (Nature Communications, 2022)", "note": "Numbered stars: 1 amine (or outer) side, 2 acyl side, 3 side chain; on linkers, the order of the positions; unused ones are H or OH. Bridge positions count the residues as written; N and C are the ends. Square brackets hold non-standard residues; d marks the D form. Peptide text beside a SMILES is read from it. * marks the point of attachment. ξ: configuration not given here. Pyrazinoyl(5-oxo-4H) = O=C(c1c[nH]c(=O)cn1)*; ξNaproxenoyl = COc1ccc2cc(C(C)C(=O)*)ccc2c1; 1,2,3Thiadiazole5CO(4-Me) = Cc1nnsc1C(=O)*; Isoorotoyl = O=C(c1c[nH]c(=O)[nH]c1=O)*; Nicotinoyl(6-OMe) = COc1ccc(C(=O)*)cn1; 2Thenoyl(5-Cl) = O=C(c1ccc(Cl)s1)*; Pyrazinecarbonyl = O=C(c1cnccn1)*; Phenoxyacetyl = O=C(COc1ccccc1)*; X14 = O=C(C1(c2ccccc2)CCCCC1)*; Cysteamide = C(CS[*:3])N[*:1]; X3 = O=C(Cc1c[nH]c2ccccc12)*; Isovaleryl = CC(C)CC(=O)*; Orn = NCCC[C@H](N)C(=O)O; Dap = NC[CH](N)C(=O)O; Bz = O=C(c1ccccc1)*; βAla = NCCC(=O)O; Mpa = O=C(O)CCS"}
{"molecular_target": "T1, thrombin (Homo sapiens, UniProt P00734)", "T1 construct": "consists of two polypeptide chains of 36 (light chain) and 259 amino acid", "test": "Thrombin inhibition screen of crude macrocycle reactions (residual thrombin activity, fluorogenic substrate Z-Gly-Gly-Arg-AMC)", "type": "biochemical", "details": "10 µM macrocycle concentration; crude reactions, Library 1a-l; scaffold AA1-AA2-AA3 combined with 1-16 or '-'", "procedure": "As a proof-of-concept, we screened the macrocycle library for inhibitors against thrombin, which is the central blood coagulation protease and an important therapeutic target. We conducted the screen for thrombin-inhibiting macrocycles in 384-well reaction plates. Briefly, each well contained a unique macrocycle (10 μM), 5 μL of thrombin (2 nM final conc.), and subsequently, 5 µL of a fluorogenic substrate to measure the residual thrombin activity and the extent of protease inhibition.\nThe assays were performed in 384-well plates using Tris buffer at pH 7.4 (100 mM Tris-Cl, 150 mM NaCl, 10 mM MgCl2, 1 mM CaCl2, 0.1% w/v BSA, 0.01% v/v Triton-X100, and 0.6% v/v DMSO) using thrombin at a final concentration of 2 nM and the fluorogenic substrate Z-Gly-Gly-Arg-AMC at a final concentration of 50 μM. Thrombin (5 μL, 6 nM) in the Tris-Cl buffer described above was added to each peptide using a BioTek MultiFlo microplate dispenser, and incubated for 10 min at room temperature. […] Data was collected and exported using the Tecan Infinite M200 Pro instrument software. […] For the negative controls (20 wells containing DMSO but no macrocycle), an average slope was calculated. The percent of thrombin inhibition was calculated by dividing the slopes and multiplying the results by 100.", "units": {"percent residual thrombin activity": "%"}}
{"compound": "NC(=O)CC[C@@H]1NC(=O)[C@H](CCCCNC(=O)Cc2c[nH]c3ccccc23)NC(=O)[C@@H]2CCCN2C(=O)CCSSCCNC1=O", "note": "[B1-D1-Q/12] ([Mpa]PK(X3)Q-Cysteamide; disulfide 1-C)", "percent residual thrombin activity": 106.242}
{"compound": "Cc1nnsc1C(=O)NCCCC[C@@H]1NC(=O)[C@@H]2CCCN2C(=O)CCSSCCNC(=O)[C@H](CCC(N)=O)NC1=O", "note": "[B1-D1-Q/15] ([Mpa]PK(1,2,3Thiadiazole5CO(4-Me))Q-Cysteamide; disulfide 1-C)", "percent residual thrombin activity": 113.502}
{"compound": "CC(C)[C@H]1NC(=O)[C@H](CCCCNC(=O)c2ccccc2)NC(=O)[C@@H]2CCCN2C(=O)CCSSCCNC1=O", "note": "[B1-D1-v/1] ([Mpa]PK(Bz)[dV]-Cysteamide; disulfide 1-C)", "percent residual thrombin activity": 107.218}
{"compound": "CC(C)C1NC(=O)C(CCCCNC(=O)c2cnccn2)NC(=O)C2CCCN2C(=O)CCSSCCNC1=O", "note": "(stereo not shown) [B1-D1-v/2] ([Mpa]PK(Pyrazinecarbonyl)V-Cysteamide; disulfide 1-C; configuration not given here)", "percent residual thrombin activity": 115.134}
{"compound": "CC(C)CC(=O)NCCCC[C@@H]1NC(=O)[C@@H]2CCCN2C(=O)CCSSCCNC(=O)[C@@H](C(C)C)NC1=O", "note": "[B1-D1-v/8] ([Mpa]PK(Isovaleryl)[dV]-Cysteamide; disulfide 1-C)", "percent residual thrombin activity": 112.751}
{"compound": "CC(C)[C@H]1NC(=O)[C@H](CCCCNC(=O)c2c[nH]c(=O)cn2)NC(=O)[C@@H]2CCCN2C(=O)CCSSCCNC1=O", "note": "[B1-D1-v/9] ([Mpa]PK(Pyrazinoyl(5-oxo-4H))[dV]-Cysteamide; disulfide 1-C)", "percent residual thrombin activity": 111.698}
{"compound": "COc1ccc(C(=O)NCCCC[C@@H]2NC(=O)[C@@H]3CCCN3C(=O)CCSSCCNC(=O)[C@@H](C(C)C)NC2=O)cn1", "note": "[B1-D1-v/10] ([Mpa]PK(Nicotinoyl(6-OMe))[dV]-Cysteamide; disulfide 1-C)", "percent residual thrombin activity": 107.398}
{"compound": "CC(C)[C@H]1NC(=O)[C@H](CCCCNC(=O)COc2ccccc2)NC(=O)[C@@H]2CCCN2C(=O)CCSSCCNC1=O", "note": "[B1-D1-v/13] ([Mpa]PK(Phenoxyacetyl)[dV]-Cysteamide; disulfide 1-C)", "percent residual thrombin activity": 123.844}
{"compound": "CC(C)[C@H]1NC(=O)[C@H](CCCCN)NC(=O)[C@@H]2CCCN2C(=O)CCSSCCNC1=O", "note": "[B1-D1-v/-] ([Mpa]PK[dV]-Cysteamide; disulfide 1-C)", "percent residual thrombin activity": 114.269}
{"compound": "O=C(NCCCC[C@@H]1NC(=O)[C@@H]2CCCN2C(=O)CCSSCCNC(=O)[C@@H](Cc2ccc(O)cc2)NC1=O)c1ccccc1", "note": "[B1-D1-y/1] ([Mpa]PK(Bz)[dY]-Cysteamide; disulfide 1-C)", "percent residual thrombin activity": 105.697}
{"compound": "O=C(NCCCC[C@@H]1NC(=O)[C@@H]2CCCN2C(=O)CCSSCCNC(=O)[C@@H](Cc2ccc(O)cc2)NC1=O)c1c[nH]c(=O)cn1", "note": "[B1-D1-y/9] ([Mpa]PK(Pyrazinoyl(5-oxo-4H))[dY]-Cysteamide; disulfide 1-C)", "percent residual thrombin activity": 107.785}
{"compound": "COc1ccc(C(=O)NCCCC[C@@H]2NC(=O)[C@@H]3CCCN3C(=O)CCSSCCNC(=O)[C@@H](Cc3ccc(O)cc3)NC2=O)cn1", "note": "[B1-D1-y/10] ([Mpa]PK(Nicotinoyl(6-OMe))[dY]-Cysteamide; disulfide 1-C)", "percent residual thrombin activity": 109.958}
{"compound": "NC(=O)CC[C@@H]1NC(=O)[C@@H]2CCCN2C(=O)CCSSCCNC(=O)[C@H](CCCNC(=O)c2c[nH]c(=O)[nH]c2=O)NC1=O", "note": "[B1-Q-D2/11] ([Mpa]PQ[Orn](Isoorotoyl)-Cysteamide; disulfide 1-C)", "percent residual thrombin activity": 110.064}
{"compound": "NC(=O)CC[C@@H]1NC(=O)[C@@H]2CCCN2C(=O)CCSSCCNC(=O)[C@H](CCCNC(=O)Cc2c[nH]c3ccccc23)NC1=O", "note": "[B1-Q-D2/12] ([Mpa]PQ[Orn](X3)-Cysteamide; disulfide 1-C)", "percent residual thrombin activity": 104.653}
{"compound": "O=C(NCCC[C@@H]1NC(=O)[C@H](CO)NC(=O)[C@@H]2CCCN2C(=O)CCSSCCNC1=O)c1ccccc1", "note": "[B1-S-D2/1] ([Mpa]PS[Orn](Bz)-Cysteamide; disulfide 1-C)", "percent residual thrombin activity": 109.462}
{"compound": "CC(C)CC(=O)NCCC[C@@H]1NC(=O)[C@H](CO)NC(=O)[C@@H]2CCCN2C(=O)CCSSCCNC1=O", "note": "[B1-S-D2/8] ([Mpa]PS[Orn](Isovaleryl)-Cysteamide; disulfide 1-C)", "percent residual thrombin activity": 106.543}
{"compound": "O=C(NCCC[C@@H]1NC(=O)[C@H](CO)NC(=O)[C@@H]2CCCN2C(=O)CCSSCCNC1=O)c1c[nH]c(=O)[nH]c1=O", "note": "[B1-S-D2/11] ([Mpa]PS[Orn](Isoorotoyl)-Cysteamide; disulfide 1-C)", "percent residual thrombin activity": 112.339}
{"compound": "O=C(NCCC[C@@H]1NC(=O)[C@H](CO)NC(=O)[C@@H]2CCCN2C(=O)CCSSCCNC1=O)c1ccc(Cl)s1", "note": "[B1-S-D2/14] ([Mpa]PS[Orn](2Thenoyl(5-Cl))-Cysteamide; disulfide 1-C)", "percent residual thrombin activity": 96.3876}
{"compound": "COc1ccc(C(=O)NCCCC[C@@H]2NC(=O)[C@@H](CO)NC(=O)[C@@H]3CCCN3C(=O)CCSSCCNC2=O)cn1", "note": "[B1-s-D1/10] ([Mpa]P[dS]K(Nicotinoyl(6-OMe))-Cysteamide; disulfide 1-C)", "percent residual thrombin activity": 110.704}
{"compound": "O=C(Cc1c[nH]c2ccccc12)NCCCC[C@@H]1NC(=O)[C@@H](CO)NC(=O)[C@@H]2CCCN2C(=O)CCSSCCNC1=O", "note": "[B1-s-D1/12] ([Mpa]P[dS]K(X3)-Cysteamide; disulfide 1-C)", "percent residual thrombin activity": 111.278}
{"compound": "NCCCC[C@@H]1NC(=O)[C@@H](CO)NC(=O)[C@@H]2CCCN2C(=O)CCSSCCNC1=O", "note": "[B1-s-D1/-] ([Mpa]P[dS]K-Cysteamide; disulfide 1-C)", "percent residual thrombin activity": 113.487}
{"compound": "O=C(NCCC[C@@H]1NC(=O)[C@H](CO)NC(=O)[C@@H]2CCCN2C(=O)CCSSCCNC1=O)c1ccccc1", "note": "[B1-s-D2/1] ([Mpa]PS[Orn](Bz)-Cysteamide; disulfide 1-C)", "percent residual thrombin activity": 108.892}
{"compound": "CC(C)CC(=O)NCCC[C@@H]1NC(=O)[C@H](CO)NC(=O)[C@@H]2CCCN2C(=O)CCSSCCNC1=O", "note": "[B1-s-D2/8] ([Mpa]PS[Orn](Isovaleryl)-Cysteamide; disulfide 1-C)", "percent residual thrombin activity": 104.868}
{"compound": "O=C(NCCC[C@@H]1NC(=O)[C@H](CO)NC(=O)[C@@H]2CCCN2C(=O)CCSSCCNC1=O)c1c[nH]c(=O)[nH]c1=O", "note": "[B1-s-D2/11] ([Mpa]PS[Orn](Isoorotoyl)-Cysteamide; disulfide 1-C)", "percent residual thrombin activity": 111.409}
{"compound": "O=C(NCCC[C@@H]1NC(=O)[C@H](CO)NC(=O)[C@@H]2CCCN2C(=O)CCSSCCNC1=O)c1ccc(Cl)s1", "note": "[B1-s-D2/14] ([Mpa]PS[Orn](2Thenoyl(5-Cl))-Cysteamide; disulfide 1-C)", "percent residual thrombin activity": 95.3682}
{"compound": "COc1ccc(C(=O)NCCC[C@@H]2NC(=O)CCNC(=O)CCSSCCNC(=O)[C@H](Cc3ccc(O)cc3)NC2=O)cn1", "note": "[B2-D2-Y/10]", "percent residual thrombin activity": 105.275}
{"compound": "O=C1CCSSCCNC(=O)[C@H](Cc2ccc(O)cc2)NC(=O)[C@H](CCCNC(=O)COc2ccccc2)NC(=O)CCN1", "note": "[B2-D2-Y/13]", "percent residual thrombin activity": 109.064}
{"compound": "O=C1CCSSCCNC(=O)[C@H](Cc2ccc(O)cc2)NC(=O)[C@H](CCCNC(=O)c2ccco2)NC(=O)CCN1", "note": "[B2-D2-Y/16]", "percent residual thrombin activity": 116.586}
{"compound": "CC(C)C[C@@H]1NC(=O)CCNC(=O)CCSSCCNC(=O)[C@H](CCCNC(=O)c2ccccc2)NC1=O", "note": "[B2-L-D2/1] ([Mpa][βAla]L[Orn](Bz)-Cysteamide; disulfide 1-C)", "percent residual thrombin activity": 106.68}
{"compound": "CC(C)C[C@@H]1NC(=O)CCNC(=O)CCSSCCNC(=O)[C@H](CCCNC(=O)c2cnccn2)NC1=O", "note": "[B2-L-D2/2]", "percent residual thrombin activity": 112.903}
{"compound": "COc1ccc(C(=O)NCCC[C@@H]2NC(=O)[C@H](CC(C)C)NC(=O)CCNC(=O)CCSSCCNC2=O)cn1", "note": "[B2-L-D2/10]", "percent residual thrombin activity": 110.801}
{"molecular_target": "MDM2 (Homo sapiens, UniProt Q00987)", "sequence (Q00987 whole entry, the tested form may be a part)": "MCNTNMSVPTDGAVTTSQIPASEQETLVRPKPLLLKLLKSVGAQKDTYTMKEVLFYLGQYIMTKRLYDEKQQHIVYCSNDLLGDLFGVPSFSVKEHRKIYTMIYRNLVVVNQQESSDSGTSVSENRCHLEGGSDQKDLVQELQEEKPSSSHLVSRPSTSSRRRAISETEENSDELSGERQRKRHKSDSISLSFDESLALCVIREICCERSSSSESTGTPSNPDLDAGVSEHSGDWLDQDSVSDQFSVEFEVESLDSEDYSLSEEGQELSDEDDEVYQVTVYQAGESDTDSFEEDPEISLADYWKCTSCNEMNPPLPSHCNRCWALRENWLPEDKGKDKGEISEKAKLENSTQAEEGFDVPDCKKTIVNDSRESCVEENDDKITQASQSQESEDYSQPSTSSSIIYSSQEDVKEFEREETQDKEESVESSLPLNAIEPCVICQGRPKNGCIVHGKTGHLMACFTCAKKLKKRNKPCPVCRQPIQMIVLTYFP", "test": "MDM2 binding screen: displacement of fluorescent p53 peptide probe FP53 (fluorescence polarization)", "details": "10 µM macrocycle concentration; crude acylated macrocycle (scaffold Mpa-AA1-AA2-AA3 x carboxylic acid); p53-based fluorescent peptide, human MDM2", "how_it_was_run": "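Macrocycle reaction products at a final 10 µM were tested for displacement of a p53-based fluorescent peptide from human MDM2. Fluorescence anisotropy (ex 485/em 535 nm) was read once per macrocycle at 25 °C.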"}
{"compound": "COc1ccc2cc(C(C)C(=O)NCC3NC(=O)C4CCCN4C(=O)CCSSCCNC(=O)C(Cc4c[nH]c5ccccc45)NC3=O)ccc2c1", "note": "(stereo not shown) [X-B1-D3-W + A97] ([Mpa]P[Dap](ξNaproxenoyl)W-Cysteamide; disulfide 1-C; configuration not given here)", "fraction fluorescent probe displaced": 0.005277}
{"compound": "O=C1NCCSSCCC(=O)N2CCC[C@H]2C(=O)N[C@@H](CNC(=O)C2(c3ccccc3)CCCCC2)C(=O)N[C@H]1Cc1c[nH]c2ccccc12", "note": "[X-B1-D3-W + A98] ([Mpa]P[Dap](X14)W-Cysteamide; disulfide 1-C)", "fraction fluorescent probe displaced": 0.6683}
{"compound": "NC[C@@H]1NC(=O)[C@@H]2CCCN2C(=O)CCSSCCNC(=O)[C@H](Cc2c[nH]c3ccccc23)NC1=O", "note": "[X-B1-D3-W + No Acid] ([Mpa]P[Dap]W-Cysteamide; disulfide 1-C)", "fraction fluorescent probe displaced": 0.1075}
